Experimental data from patent US9113629B2, “4-amino-6-(4-substituted-phenyl)-picolinates and 6-amino-2-(4-substituted-phenyl)-pyrimidine-4-carboxylates and their use as herbicides” (DOW AGROSCIENCES LLC, priority 2013, dated 2015).
Where two headings read alike, the source gives them in different places. Values belong to the compound of their own block, whether it stands above or below them.

Legend:
[1] = system: Key Broadleaf Weed and Crop Species; assay: Post-emergent Test II herbicidal activity (Table 5); format: in vivo; settings: post-emergence, 336 h, 14 days after application
Procedure, shortened: (§1)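 Scoring: visual, 0–100% injury at 14 d versus untreated. Treatment: overhead track spray, 187 L/ha, onto plants at the first–second true leaf stage. Growth: greenhouse, ~15 h light, 23–29 °C day, 22–28 °C night.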

[2] = system: Key Grass and Sedge Weeds as well as Grass Crops; assay: Post-emergent Test II herbicidal activity (Table 6); format: in vivo; settings: post-emergence, 336 h; for pest or weed control at 70 g/ha: application rate 70 g ai/ha; for pest or weed control at 140 g/ha: application rate 140 g ai/ha
Procedure, shortened: as §1

[3] = CYPES: yellow nutsedge (Cyperus esculentus), read-out: Visual Growth Reduction (%) 14 Days After Application, CYPES
[4] = DIGSA: crabgrass (Digitaria sanguinalis), read-out: Visual Growth Reduction (%) 14 Days After Application, DIGSA
[5] = ECHCG: barnyardgrass (Echinochloa crus-galli), read-out: Visual Growth Reduction (%) 14 Days After Application, ECHCG
[6] = ORYSA: rice (Oryza sativa), read-out: Visual Growth Reduction (%) 14 Days After Application, ORYSA
[7] = SETFA: giant foxtail (Setaria faberi), read-out: Visual Growth Reduction (%) 14 Days After Application, SETFA
[8] = SORVU: grain sorghum (Sorghum vulgare), read-out: Visual Growth Reduction (%) 14 Days After Application, SORVU
[9] = TRZSS (wheat, Triticum aestivum), read-out: Visual Growth Reduction (%) 14 Days After Application, TRZSS
[10] = ZEAMX: maize, corn (Zea mays), read-out: Visual Growth Reduction (%) 14 Days After Application, ZEAMX
[11] = Triticum aestivum, TRZSS (wheat), read-out: Visual Growth Reduction (%) 14 Days After Application, TRZSS

melting point: 170.1 to 172.6 °C
Structure (SMILES): Nc1cc(-c2c(F)cc(I)c(F)c2F)nc(C(=O)O)c1Cl [Compound 68]
pest or weed control at 70 g/ha ([1]; ABUTH: velvetleaf (Abutilon theophrasti), 70 g ai/ha, post-emergent, read-out: Visual Growth Reduction (%) 14 Days After Application ABUTH): 85 to 94%
pest or weed control at 140 g/ha ([1]; ABUTH: velvetleaf (Abutilon theophrasti), 140 g ai/ha, post-emergent, read-out: Visual Growth Reduction (%) 14 Days After Application ABUTH): 85 to 94%
pest or weed control at 70 g/ha ([1]; AMARE: redroot pigweed (Amaranthus retroflexus), 70 g ai/ha, post-emergent, read-out: Visual Growth Reduction (%) 14 Days After Application AMARE): 95 to 100%
pest or weed control at 140 g/ha ([1]; AMARE: redroot pigweed (Amaranthus retroflexus), 140 g ai/ha, post-emergent, read-out: Visual Growth Reduction (%) 14 Days After Application AMARE): 95 to 100%
pest or weed control at 70 g/ha ([1]; BRSNN: oilseed-rape, canola (Brassica napus), 70 g ai/ha, post-emergent, read-out: Visual Growth Reduction (%) 14 Days After Application BRSNN): 95 to 100%
pest or weed control at 140 g/ha ([1]; BRSNN: oilseed-rape, canola (Brassica napus), 140 g ai/ha, post-emergent, read-out: Visual Growth Reduction (%) 14 Days After Application BRSNN): 95 to 100%
pest or weed control at 70 g/ha ([1]; CHEAL: lambsquarters (Chenopodium album), 70 g ai/ha, post-emergent, read-out: Visual Growth Reduction (%) 14 Days After Application CHEAL): 95 to 100%
pest or weed control at 140 g/ha ([1]; CHEAL: lambsquarters (Chenopodium album), 140 g ai/ha, post-emergent, read-out: Visual Growth Reduction (%) 14 Days After Application CHEAL): 95 to 100%
pest or weed control at 70 g/ha ([1]; EPHHL: wild poinsettia (Euphorbia heterophylla), 70 g ai/ha, post-emergent, read-out: Visual Growth Reduction (%) 14 Days After Application EPHHL): 95 to 100%
pest or weed control at 140 g/ha ([1]; EPHHL: wild poinsettia (Euphorbia heterophylla), 140 g ai/ha, post-emergent, read-out: Visual Growth Reduction (%) 14 Days After Application EPHHL): 95 to 100%
pest or weed control at 70 g/ha ([1]; HELAN: sunflower (Helianthus annuus), 70 g ai/ha, post-emergent, read-out: Visual Growth Reduction (%) 14 Days After Application HELAN): 60 to 74%
pest or weed control at 140 g/ha ([1]; HELAN: sunflower (Helianthus annuus), 140 g ai/ha, post-emergent, read-out: Visual Growth Reduction (%) 14 Days After Application HELAN): 0 to 29%
pest or weed control at 70 g/ha ([1]; VIOTR: wild pansy (Viola tricolor), 70 g ai/ha, post-emergent, read-out: Visual Growth Reduction (%) 14 Days After Application VIOTR): 95 to 100%
pest or weed control at 140 g/ha ([1]; VIOTR: wild pansy (Viola tricolor), 140 g ai/ha, post-emergent, read-out: Visual Growth Reduction (%) 14 Days After Application VIOTR): 95 to 100%
pest or weed control at 70 g/ha [2, 3]: 95 to 100%
pest or weed control at 140 g/ha [2, 3]: 95 to 100%
pest or weed control at 70 g/ha [2, 4]: 75 to 84%
pest or weed control at 140 g/ha [2, 4]: 75 to 84%
pest or weed control at 70 g/ha [2, 5]: 85 to 94%
pest or weed control at 140 g/ha [2, 5]: 75 to 84%
pest or weed control at 70 g/ha [2, 6]: 45 to 59%
pest or weed control at 140 g/ha [2, 6]: 45 to 59%
pest or weed control at 70 g/ha [2, 7]: 85 to 94%
pest or weed control at 140 g/ha [2, 7]: 75 to 84%
pest or weed control at 70 g/ha [2, 8]: 95 to 100%
pest or weed control at 140 g/ha [2, 8]: 95 to 100%
pest or weed control at 70 g/ha [2, 9]: 30 to 44%
pest or weed control at 140 g/ha [2, 9]: 45 to 59%
pest or weed control at 70 g/ha [2, 10]: 0 to 29%
pest or weed control at 140 g/ha [2, 10]: 75 to 84%

melting point: 172 to 174 °C
Structure (SMILES): COC(=O)c1nc(-c2ccc(I)c(F)c2F)cc(N)c1Cl [Compound 129, Methyl 4-amino-3-chloro-6-(2,3-difluoro-4-iodophenyl)picolinate]
pest or weed control at 70 g/ha ([1]; ABUTH: velvetleaf (Abutilon theophrasti), application rate 70 g ai/ha, read-out: Visual Growth Reduction (%) 14 Days After Application, ABUTH): 95 to 100%
pest or weed control at 140 g/ha ([1]; ABUTH: velvetleaf (Abutilon theophrasti), application rate 140 g ai/ha, read-out: Visual Growth Reduction (%) 14 Days After Application, ABUTH): 95 to 100%
pest or weed control at 70 g/ha ([1]; AMARE: redroot pigweed (Amaranthus retroflexus), application rate 70 g ai/ha, read-out: Visual Growth Reduction (%) 14 Days After Application, AMARE): 95 to 100%
pest or weed control at 140 g/ha ([1]; AMARE: redroot pigweed (Amaranthus retroflexus), application rate 140 g ai/ha, read-out: Visual Growth Reduction (%) 14 Days After Application, AMARE): 95 to 100%
pest or weed control at 70 g/ha ([1]; BRSNN: oilseed-rape, canola (Brassica napus), application rate 70 g ai/ha, read-out: Visual Growth Reduction (%) 14 Days After Application, BRSNN): 85 to 94%
pest or weed control at 140 g/ha ([1]; BRSNN: oilseed-rape, canola (Brassica napus), application rate 140 g ai/ha, read-out: Visual Growth Reduction (%) 14 Days After Application, BRSNN): 95 to 100%
pest or weed control at 70 g/ha ([1]; CHEAL: lambsquarters (Chenopodium album), application rate 70 g ai/ha, read-out: Visual Growth Reduction (%) 14 Days After Application, CHEAL): 95 to 100%
pest or weed control at 140 g/ha ([1]; CHEAL: lambsquarters (Chenopodium album), application rate 140 g ai/ha, read-out: Visual Growth Reduction (%) 14 Days After Application, CHEAL): 95 to 100%
pest or weed control at 70 g/ha ([1]; EPHHL: wild poinsettia (Euphorbia heterophylla), application rate 70 g ai/ha, read-out: Visual Growth Reduction (%) 14 Days After Application, EPHHL): 95 to 100%
pest or weed control at 140 g/ha ([1]; EPHHL: wild poinsettia (Euphorbia heterophylla), application rate 140 g ai/ha, read-out: Visual Growth Reduction (%) 14 Days After Application, EPHHL): 95 to 100%
pest or weed control at 70 g/ha ([1]; HELAN: sunflower (Helianthus annuus), application rate 70 g ai/ha, read-out: Visual Growth Reduction (%) 14 Days After Application, HELAN): 75 to 84%
pest or weed control at 140 g/ha ([1]; HELAN: sunflower (Helianthus annuus), application rate 140 g ai/ha, read-out: Visual Growth Reduction (%) 14 Days After Application, HELAN): 85 to 94%
pest or weed control at 70 g/ha ([1]; VIOTR: wild pansy (Viola tricolor), application rate 70 g ai/ha, read-out: Visual Growth Reduction (%) 14 Days After Application, VIOTR): 95 to 100%
pest or weed control at 140 g/ha ([1]; VIOTR: wild pansy (Viola tricolor), application rate 140 g ai/ha, read-out: Visual Growth Reduction (%) 14 Days After Application, VIOTR): 95 to 100%
pest or weed control at 70 g/ha [2, 11]: 45 to 59%
pest or weed control at 140 g/ha [2, 11]: 45 to 59%
pest or weed control at 70 g/ha [2, 3]: 95 to 100%
pest or weed control at 70 g/ha [2, 4]: 60 to 74%
pest or weed control at 140 g/ha [2, 4]: 60 to 74%
pest or weed control at 70 g/ha [2, 5]: 75 to 84%
pest or weed control at 140 g/ha [2, 5]: 75 to 84%
pest or weed control at 70 g/ha [2, 6]: 0 to 29%
pest or weed control at 140 g/ha [2, 6]: 0 to 29%
pest or weed control at 70 g/ha [2, 8]: 95 to 100%
pest or weed control at 140 g/ha [2, 8]: 95 to 100%
pest or weed control at 70 g/ha [2, 10]: 60 to 74%
pest or weed control at 140 g/ha [2, 10]: 75 to 84%
